These results are taken from patent publication US20250064947A1, “CYTOTOXICITY TARGETING CHIMERAS FOR FIBROBLAST ACTIVATION PROTEIN-EXPRESSING CELLS” (Glaxosmithkline Intellectual Property Development Limited, priority 2022, published 2025).

A value given as a limit tells only on which side of the number the result lay.

This experiment deals with T1, FAP (Homo sapiens, UniProt Q12884).
T1 construct: Target cells: WI-38 cells (typically 1000-20,000 cells per well); endogenous in cells; host or cells: WI-38 cells
T1 sequence (Q12884 1-760): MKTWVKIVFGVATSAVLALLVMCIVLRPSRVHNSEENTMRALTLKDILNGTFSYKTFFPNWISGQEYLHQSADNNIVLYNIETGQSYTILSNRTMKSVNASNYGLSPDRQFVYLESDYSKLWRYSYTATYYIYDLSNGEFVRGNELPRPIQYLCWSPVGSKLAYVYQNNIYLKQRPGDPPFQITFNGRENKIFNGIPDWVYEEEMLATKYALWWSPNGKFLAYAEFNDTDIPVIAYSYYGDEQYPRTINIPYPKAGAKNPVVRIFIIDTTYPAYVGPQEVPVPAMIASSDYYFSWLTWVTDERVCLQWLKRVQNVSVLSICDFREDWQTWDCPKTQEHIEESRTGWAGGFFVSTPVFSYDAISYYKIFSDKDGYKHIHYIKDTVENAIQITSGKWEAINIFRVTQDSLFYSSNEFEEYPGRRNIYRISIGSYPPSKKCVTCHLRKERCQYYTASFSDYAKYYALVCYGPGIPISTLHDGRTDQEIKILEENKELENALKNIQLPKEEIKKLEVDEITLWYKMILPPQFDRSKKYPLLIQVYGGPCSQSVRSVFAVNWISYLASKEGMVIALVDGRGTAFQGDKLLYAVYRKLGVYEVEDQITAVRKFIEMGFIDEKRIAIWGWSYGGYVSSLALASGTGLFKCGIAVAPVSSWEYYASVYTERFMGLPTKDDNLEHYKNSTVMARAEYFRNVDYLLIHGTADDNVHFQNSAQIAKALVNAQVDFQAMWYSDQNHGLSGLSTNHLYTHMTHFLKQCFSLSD
The experiment can be described thus: Antibody dependent cellular cytotoxicity (ADCC) reporter assay. Conditions: WI-38 target cells; Jurkat FcγRIIIa NFAT-luciferase reporter cells; with anti-cotinine antibody (SEQ ID NO: 11/12); 12-18 hours; average if more than one run; read-out: ADCC Reporter Assay pEC50 (converted). In kind it is cell-based. On the procedure:
An antibody dependent cellular cytotoxicity (ADCC) reporter assay was conducted using the following four assay components: (i) ARM compound of Formula (I) targeting FAP (concentrations ranging from […]); (ii) anti-cotinine antibody having a heavy chain sequence of SEQ ID NO: 11 and a light chain sequence of SEQ ID NO: 12 (rabbit variable region with human IgG1 Fc domain containing DE mutation (S239D/I332E)) (concentrations ranging from 0.01 μg/mL 200 μg/mL); (iii) Target cells: WI-38 cells (typically 1000-20,000 cells per well); and (iv) Reporter cells—Jurkat cells engineered to express FcγRIIIa with a reporter gene luciferase under the control of the NFAT promoter (typically 3000-75,000 cells per well). Reagents were combined in final volume of 20 μL in 384—well tissue culture treated plate. All four assay components were incubated together for about 12-18 hours. Thereafter, BioGlo Detection reagent (Promega) was added to the wells to lyse the cells and provide a substrate for the luciferase reporter protein.
Luminescence signal was measured on a microplate reader capable of measuring luminescence and signal:background was calculated by dividing the signal of a test well by the signal obtained when no compound of formula (I) was included in the assay. EC50 calculations were done using Graphpad Prism Software, specifically a nonlinear regression curve fit (Y=Bottom+(Top−Bottom)/(1+10^((Log EC50−X)*HillSlope))).
ARMs compounds of Formula (I) were tested for ADCC activity in the above assay in one or more experimental runs and the results are shown in Table 3 below. Potency of the compounds of Formula (I) is reported as a pEC50 values. The pEC50 value is the negative log of the EC50 value, wherein the EC50 value is half maximal effective concentration measured in molar (M). For compounds tested in more than one experimental run, the pEC50 value is reported as an average.
Background: In a reporter assay the amount or activity of a reporter protein is the signal.
In the case of `CN1C(=O)C[C@H](C(=O)NCCOCCOCCOCCOCCOCCOCCOCCOCCOCCOCCOCCOCCOCCOCCOCCNC(=O)COc2ccc3c(C(=O)NCC(=O)N4CC(F)(F)C[C@H]4C#N)ccnc3c2)[C@H]1c1cccnc1` [Example 11, N-(2-((S)-2-cyano-4,4-difluoropyrrolidin-1-yl)-2-oxoethyl)-7-((1-((2S,3S)-1-methyl-5-oxo-2-(pyridin-3-yl)pyrrolidin-3-yl)-1,51-dioxo-5,8,11,14,17,20,23,26,29,32,35,38,41,44,47-pentadecaoxa-2,50-diazadopentacontan-52-yl)oxy)quinoline-4-carboxamide], the EC50 is above 1000 nM.
As for `CN1C(=O)C[C@H](C(=O)NCCOCCOCCOCCOCCOCCOCCOCCOCCOCCOCCOCCOCCOCCOCCOCCOCCOCCOCCOCCOCCOCCOCCOCCNC(=O)COc2ccc3c(C(=O)NCC(=O)N4CCC[C@H]4C#N)ccnc3c2)[C@H]1c1cccnc1` [Example 12, N-(2-((S)-2-cyanopyrrolidin-1-yl)-2-oxoethyl)-7-((1-((2S,3S)-1-methyl-5-oxo-2-(pyridin-3-yl)pyrrolidin-3-yl)-1,75-dioxo-5,8,11,14,17,20,23,26,29,32,35,38,41,44,47,50,53,56,59,62,65,68,71-tricosaoxa-2,74-diazahexaheptacontan-76-yl)oxy)quinoline-4-carboxamide], the EC50 is 1 nM.
Next, `CN1C(=O)C[C@H](C(=O)NCCOCCOCCOCCOCCOCCOCCOCCOCCOCCOCCOCCOCCOCCOCCOCCOCCOCCOCCOCCOCCOCCOCCOCCNC(=O)COc2ccc3c(C(=O)NCC(=O)N4CC(F)(F)C[C@H]4C#N)ccnc3c2)[C@H]1c1cccnc1` [Example 13, N-(2-((S)-2-cyano-4,4-difluoropyrrolidin-1-yl)-2-oxoethyl)-7-((1-((2S,3S)-1-methyl-5-oxo-2-(pyridin-3-yl)pyrrolidin-3-yl)-1,75-dioxo-5,8,11,14,17,20,23,26,29,32,35,38,41,44,47,50,53,56,59,62,65,68,71-tricosaoxa-2,74-diazahexaheptacontan-76-yl)oxy)quinoline-4-carboxamide]: 1 nM.
